CC(=O)Oc1ccccc1C(=O)O
Conditions	solubility (mole fraction)
in acetone, 281.9 K	0.061
in acetone, 290.6 K	0.075
in acetone, 297.9 K	0.088
in acetone, 304.4 K	0.101
in acetone, 310.6 K	0.114
in acetone, 315.3 K	0.127
in acetone, 319.8 K	0.139
in acetone, 323.3 K	0.151
in acetone, 326.3 K	0.162
in ethanol, 276.3 K	0.025
in ethanol, 291.9 K	0.049
in ethanol, 302.4 K	0.071
in ethanol, 310 K	0.093
in ethanol, 316.5 K	0.113
in ethanol, 321.5 K	0.133
in ethanol, 325.9 K	0.152
in ethanol, 330.4 K	0.17
in ethanol, 333.4 K	0.187
in ethanol, 336.6 K	0.204
in isopropanol, 281.6 K	0.013
in isopropanol, 291.8 K	0.032
in isopropanol, 304.1 K	0.063
in isopropanol, 312.9 K	0.091
in isopropanol, 316.1 K	0.102
in isopropanol, 320.4 K	0.118
in isopropanol, 322.7 K	0.128
in isopropanol, 325.8 K	0.143
in isopropanol, 327.7 K	0.153
in isopropanol, 330.2 K	0.167
in propylene glycol, 295.7 K	0.017
in propylene glycol, 301.1 K	0.025
in propylene glycol, 305.1 K	0.033
in propylene glycol, 308.2 K	0.041
in propylene glycol, 313.6 K	0.056
in propylene glycol, 318.3 K	0.071
in propylene glycol, 323.7 K	0.092
in propylene glycol, 327.9 K	0.112
in propylene glycol, 330.7 K	0.126
in propylene glycol, 333.9 K	0.145

Reference: BigSolDB 2.1
